This is an account of results in patent US20250034161A1, “SPIROCYCLIC COMPOUND AS KRAS-G12C INHIBITOR” (Shanghai Euregen Biopharma Co., Ltd., priority 2020, published 2025).

Broadly, the AUC(0-inf) is the area under the concentration-time curve extrapolated to infinity. By Cmax is commonly meant the maximum level reached in the sampled fluid or tissue. In general, half-life refers to the time in which the quantity being followed falls by half. By IC50 is commonly meant the point on the concentration scale where inhibition reaches its midpoint.

The nature of data set [1]: Pharmacokinetic properties in rats (IV and PO, LC-MS/MS). To be noted: for F: SD rats; for AUC(0-inf) / Cmax / clearance / half-life / Vd: male, Sprague-Dawley (SD), rat, plasma; for Vd: read-out: Vz. The data set is classed as in vivo. As for the experimental part:
• 1. Test purpose: to determine the pharmacokinetic characteristics of some of the example compound of the present invention in SD rats after single intravenous injection(IV) and oral administration(PO) by LC-MS/MS method. • 2. […] Animal production license number (SCXK (Shanghai) 2018-0006). • 3. Test method:
Preparation of 0.5% methyl cellulose: 5 g of methyl cellulose were weighed and dissolved in 1000 mL of purified water.
Preparation of oral formulation: A required amount of test compound was weighed and dissolved in 0.5% methyl cellulose solution to obtain a suspension or solution of 0.5 mg/mL.
Preparation of intravenous injection formulation: A required amount of test compound was weighed, and dissolved in 0.5 mL of dimethyl sulfoxide to prepare a solution of 4 mg/mL. 0.25 mL of the above solution was added into 0.5 mL of polyethylene glycol 15 hydroxystearate (solutol) and 4.25 mL of normal saline to obtain a solution of 0.2 mg/mL.
The dosage and volume administered were shown in the table below Feeding, 4 hours after administration
Sample Collection: blood is collected through jugular vein or other suitable vein, and 0.2 mL of blood was collected at each time point. Samples were placed into tubes containing ethylenediaminetetraacetic acid dipotassium salt and kept on ice before centrifugation. Within 1 hour after blood collection, the blood samples were centrifuged at 2-8° C. and 6800 g for 6 minutes and stored at −80° C. The time point for blood collection was 0.083, 0.25, 0.5, 1, 2, 4, 8 and 24 hours after intravenous administration, and 0.25, 0.5, 1, 2, 4, 6, 8 and 24 hours after oral administration.

Data set [2] in a line: Brain tissue distribution test. The following applies: SD rats, PO 20 mg/kg. The data set is classed as in vivo. As to the method:
5 g of methyl cellulose was weighed and dissolved in 1000 mL of purified water to obtain 0.5% methyl cellulose. A required amount of the test compound was weighed and dissolved in 0.5% methylcellulose solution to obtain a suspension of 2 mg/mL.
Administration: SD rats were orally administered (PO) after overnight fasting. Feeding 4 hours after administration.
Sample Collection: 0.5 mL of blood was collected at each time point via the jugular vein. Samples were placed into tubes containing ethylenediamine tetraacetic acid dipotassium salt (K2EDTA) and kept on ice before centrifugation. Within 1 hour after blood collection, blood samples were centrifuged at 2-8° C. and 6800 g for 6 minutes and stored at −80° C. After the rats were euthanized by carbon dioxide inhalation, the brains of the rats were collected, quickly frozen on dry ice, and stored at −80° C. before bioanalysis. The time points for blood collection were 0.5 and 2 hours after oral administration.

A short description of data set [3]: Plasma protein binding assay (equilibrium dialysis), human plasma. Format: in vitro ADME. The following applies: pH 7.4, equilibrium dialysis 5 hours, read-out: Plasma protein binding rate (%) (converted). As for the experimental part:
(§1) • 1. Test purpose: to evaluate the protein binding rate of the test compound in human, dog, monkey, rat and mouse plasma by equilibrium dialysis; • 2. […] Experimental methods: • 0.1 mol/L sodium phosphate and 0.15 mol/L sodium chloride buffer with pH 7.4±0.1 was preheated;
(§2) Preparation of plasma containing test substance: the test compound was dissolved in DMSO to prepare a 10 mmol/l stock solution. 5 μL of stock solution was taken and diluted with 95 μL of acetonitrile to obtain solution A (0.5 mmol/L). 8 μL of solution A was taken and diluted with 192 μL of 0.1 mol/L sodium phosphate buffer to obtain solution B (0.02 mmol/L). 570 μL of plasma was added into a 96-well plate followed by the addition of 30 μL of solution B. The final concentration was 1 μmol/L with 0.01% DMSO.
(§3) The plate was shook at 600 rpm for 10 minutes, covered and stored in a freezer (−20° C.).
(§4) T5 sample preparation (in triplicate): the dialysis device was added with 100 μL of buffer on its receiver side and 100 μL of plasma containing the test compound on its doner side. And the dialysis device was then shook at 37° C. and 120 rpm for 5 hours. At the end of culture, 25 μL of plasma containing the test substance was taken from the plasma side and then added to a 96-well plate, followed by the addition of 25 μL of buffer and 200 μL of acetonitrile solution containing internal standard. […]
(In general: In equilibrium dialysis only unbound substance equilibrates across the membrane.)

A short description of data set [4]: Plasma protein binding assay (equilibrium dialysis), monkey plasma. The data set is classed as in vitro ADME. The following applies: pH 7.4, equilibrium dialysis 5 hours, read-out: Plasma protein binding rate (%) (converted). As for the experimental part:
as §1, §2, §3, §4

Data set [5] has as its system NCI-H2122 (G12C). Kind of data set: Cell selectivity test, proliferation inhibition NCI-H2122. To be noted: Homo sapiens, 72 hours. The data set is classed as cell-based. An excerpt: • 1. Test purpose: to detect the proliferation inhibition of the test compounds on NCI-H23, NCI-H2122, HCC827, Mia paca2, A549 and SW837 cell lines. • 2. […] No. FND500); Penicillin-streptomycin was purchased from Gibco (Art. No. 15140-122); 0.25% trypsin-ethylenediaminetetraacetic acid digestive juice (Trypsin-EDTA) was purchased from Gibco (Art. No. 25200-072); dimethyl sulfoxide (DMSO) was purchased from Sigma (Art. No. D2650); 96-well cell plate was purchased from Corning (Art. No. 3610); incubator was purchased from NuAire (model number: NU-5700E); Biosafety cabinet was purchased from AuAire (model number: NU-543-600S); Inverted microscope was purchased from Nikon (Art. No. TS-100); Automated cell counter was purchased from Life technologies (model number: Countess II); Microplate reader was purchased from PerkinElmer (model number: Envision); the data processing software was GraphPad Prism 5.0. […]

Each structure is given as a SMILES string.

In data set [1] (oral gavage, 5 mg/kg), `C=CC(=O)N1CCN(c2nc(=O)n(-c3c(C)ccnc3C(C)C)c3nc(-c4c(O)cccc4F)c(F)cc23)[C@@H](C)C1` [AMG510] showed an F of 35.41%, an AUC(0-inf) of 584 ng·h/mL, a Cmax of 1260 ng/mL and a half-life of 1.81 h. Moreover, in data set [1] (intravenous injection, 1 mg/kg), the area under the curve AUC(0-inf) came to 319 ng·h/mL, the concentration peaked (Cmax) at 762 ng/mL, the clearance is 50.7 mL/min/kg and the half-life was 0.36 h. Further, in data set [1] (intravenous injection, 1 mg/kg), the Vd turned out to be 1.57 L/kg. Besides, the “Brain concentration 0.5 hours after administration (ng/g)” value in data set [2] (0.5 hours) is “Below detection limit”. For the same compound, the “Brain concentration 2 hours after administration (ng/g)” value in data set [2] (2 hours) is listed as “Below detection limit”. For the same compound, in data set [3], the fraction unbound at 5 h, 1 μmol/L is 0.075. In addition, the fraction unbound at 5 h, 1 μmol/L in data set [4] was 0.017. Moreover, the IC50 in data set [5] was determined as 27 nM.
As to `C=C(F)C(=O)N1CCN(c2nc(OC[C@@H]3CCCN3C)nc3c2CCN(c2cccc4cccc(Cl)c24)C3)C[C@@H]1CC#N` [MRTX849], in data set [1] (oral gavage, 5 mg/kg), the F stood at 13.66%, the AUC(0-inf) amounted to 238 ng·h/mL, the Cmax came to 23.3 ng/mL and the half-life was 2.8 h. In data set [1] (intravenous injection, 1 mg/kg), this compound gave an AUC(0-inf) of 348 ng·h/mL, a Cmax of 137 ng/mL, a clearance of 48.1 mL/min/kg and a half-life of 3.16 h. Moreover, the Vd in data set [1] (intravenous injection, 1 mg/kg) was determined as 13.1 L/kg. The concentration at 0.5 h in data set [2] (Sprague-Dawley (SD), rat, brain, 0.5 hours, read-out: Brain concentration 0.5 hours after administration) came to 8 ng/g. The concentration at 2 h in data set [2] (Sprague-Dawley (SD), rat, brain, 2 hours, read-out: Brain concentration 2 hours after administration) is 69.8 ng/g. Further, the fraction unbound at 5 h, 1 μmol/L in data set [3] is 0.018. Also, the fraction unbound at 5 h, 1 μmol/L in data set [4] was 0.013.
